Laboratory results taken from ChEMBL document CHEMBL5104211, “Design and synthesis of bile acid derivatives and their activity against colon cancer” (RSC Med Chem, 2022).
The source made the active and inactive calls. No cut-off for these calls is given here.

Assays:
SK-HEP1 = assay: Anticancer activity against human SK-HEP1 cells assessed as inhibition of cell proliferation by MTT assay; format: functional, cell-based
HCT-116 [1] = assay: Induction of apoptosis in human HCT-116 cells assessed as retraction of the nucleus at 30 micromol/L incubated for 48 hrs by Giemsa staining based fluorescence microscopy; format: functional, cell-based; conditions: dose 30.0 µmol/L
Huh-7 = assay: Anticancer activity against human Huh-7 cells assessed as inhibition of cell proliferation by MTT assay; format: functional, cell-based
A549 = assay: Anticancer activity against human A549 cells assessed as inhibition of cell proliferation by MTT assay; format: functional, cell-based
HCT-116 [2] = assay: Induction of apoptosis in human HCT-116 cells assessed as viable cells at 30 micromol/L incubated for 48 hrs by annexin V-FITC and propidium iodide staining based flow cytometry analysis (reference value: 89.29%); format: functional; conditions: HCT-116, 48 h, dose 30 µmol/L, read-out: Activity
HCT-116 [3] = assay: Induction of apoptosis in human HCT-116 cells assessed as late apoptotic cells at 30 micromol/L incubated for 48 hrs by annexin V-FITC and propidium iodide staining based flow cytometry analysis (reference value: 7.13%); format: functional; conditions: dose 30 µmol/L, at 30 µM
HCT-116 [4] = assay: […] activity in human HCT-116 cells assessed as downregulation of Bcl-2 level at 30 micromol/L incubated for 48 hrs by Western blot analysis; format: functional, cell-based; conditions: dose 30.0 µmol/L
HCT-116 [5] = assay: Anticancer activity in human HCT-116 cells assessed as downregulation of phosphorylated STAT3 level at 30 micromol/L incubated for 48 hrs by Western blot analysis; format: functional, cell-based; conditions: dose 30.0 µmol/L
HCT-116 [6] = assay: Induction of apoptosis in human HCT-116 cells assessed as apoptotic body formation at 30 micromol/L incubated for 48 hrs by Giemsa staining based fluorescence microscopy; format: functional, cell-based; conditions: dose 30.0 µmol/L
HCT-116 [7] = assay: Inhibition of cell invasion in human HCT-116 cells at 20 micromol/L and measured after 24 hrs by crystal violet staining based transwell assay; format: functional; conditions: HCT-116, 24 h, dose 20 µmol/L
HCT-116 [8] = assay: Inhibition of cell migration in human HCT-116 cells at 20 micromol/L and measured after 24 hrs by crystal violet staining based transwell assay; format: functional; conditions: HCT-116, 24 h, dose 20 µmol/L
HCT-116 [9] = assay: Anticancer activity against human HCT-116 cells assessed as decrease in number of colonies at 25 micromol/L and measured after 48 hrs by crystal violet dye based colony formation assay; format: functional, cell-based; conditions: dose 25.0 µmol/L
HCT-116 [10] = assay: Induction of mitochondrial membrane potential loss in human HCT-116 cells and measured after 48 hrs by TRME staining based flow cytometric analysis (reference value: 97.52%); format: functional
HCT-116 [11] = assay: Induction of apoptosis in human HCT-116 cells assessed as necrotic cells at 30 micromol/L incubated for 48 hrs by annexin V-FITC and propidium iodide staining based flow cytometry analysis (reference value: 0.88%); format: functional; conditions: dose 30 µmol/L, at 30 µM
HCT-116 [12] = assay: Induction of ROS generation in human HCT-116 cells assessed as increase in intracellular ROS level incubated for 48 hrs by DCFH-DA staining based flow cytometric analysis (Rvb=73.65%); format: functional
HCT-116 [13] = assay: Induction of apoptosis in human HCT-116 cells assessed as early apoptotic cells at 30 micromol/L incubated for 48 hrs by annexin V-FITC and propidium iodide staining based flow cytometry analysis (reference value: 2.69%); format: functional; conditions: dose 30 µmol/L, at 30 µM
LoVo = assay: Anticancer activity against human LoVo cells assessed as inhibition of cell proliferation by MTT assay; format: functional, cell-based
RAW264.7 [14] = assay: Anti-inflammatory activity against mouse RAW264.7 cells assessed as downregulation of LPS-induced TNF-alpha level at 10 to 25 micromol/L incubated for 24 hrs in presence of LPS by ELISA; format: functional, cell-based; conditions: dose 10-25 µmol/L
HCT-116 [15] = assay: Anticancer activity against human HCT-116 cells assessed as inhibition of cell proliferation at 20 to 40 micromol/L incubated for 24 to 72 hrs by MTT assay; format: functional, cell-based; conditions: dose 20-40 µmol/L, time 24-72 hrs, TDE = time-dependent effect
RKO = assay: Anticancer activity against human RKO cells assessed as inhibition of cell proliferation by MTT assay; format: functional, cell-based
HCT-116 [16] = assay: Induction of apoptosis in human HCT-116 cells assessed as increase in number of apoptotic cells at 30 micromol/L incubated for 48 hrs by DAPI staining based fluorescence microscopy; format: functional, cell-based; conditions: dose 30.0 µmol/L
HCT-116 [17] = assay: Induction of cell cycle arrest in human HCT-116 cells assessed as accumulation G2/M phase at 25 micromol/L and measured after 48 hrs by propidium iodide staining based flow cytometry analysis (Rvb= 11%); format: functional; conditions: dose 25 µmol/L, at 25 µM
[18] = Cytotoxicity against human WI-38 cells assessed as inhibition of cell proliferation by MTT assay; format: toxicity, cell-based
MGC-803 = assay: Anticancer activity against human MGC-803 cells assessed as inhibition of cell proliferation by MTT assay; format: functional, cell-based
HCT-116 [19] = assay: Induction of apoptosis in human HCT-116 cells assessed as contraction of cell volume at 30 micromol/L incubated for 48 hrs by Giemsa staining based fluorescence microscopy; format: functional; conditions: dose 30.0 µmol/L
HCT-116 [20] = assay: Anticancer activity against human HCT-116 cells assessed as inhibition of cell proliferation at 40 micromol/L incubated for 24 hrs by MTT assay; format: functional; conditions: HCT-116, 24 h, dose 40 µmol/L
RAW264.7 [21] = assay: Anti-inflammatory activity against mouse RAW264.7 cells assessed as inhibition of LPS-induced NO production incubated for 24 hrs in presence of LPS by Griess reagent-based assay; format: functional, cell-based; conditions: RAW264.7, 24 h
HT-29 = assay: Anticancer activity against human HT-29 cells assessed as inhibition of cell proliferation by MTT assay; format: functional, cell-based
SW480 = assay: Anticancer activity against human SW480 cells assessed as inhibition of cell proliferation by MTT assay; format: functional, cell-based
HCT-116 [22] = assay: Anticancer activity against human HCT-116 cells assessed as inhibition of cell proliferation at 5 to 50 micromol/L incubated for 24 hrs by MTT assay; format: functional, cell-based; conditions: dose 5-50 µmol/L, DDE = dose-dependent effect
HCT-116 [23] = assay: Induction of apoptosis in human HCT-116 cells assessed as retraction of the cytoplasm at 30 micromol/L incubated for 48 hrs by Giemsa staining based fluorescence microscopy; format: functional, cell-based; conditions: dose 30.0 µmol/L
HCT-116 [24] = assay: Anticancer activity against human HCT-116 cells assessed as decrease in size of colonies at 25 micromol/L and measured after 48 hrs by crystal violet dye based colony formation assay; format: functional, cell-based; conditions: dose 25.0 µmol/L
HCT-116 [25] = assay: Anticancer activity against human HCT-116 cells assessed as inhibition of cell proliferation at 20 micromol/L incubated for 24 hrs by MTT assay; format: functional; conditions: HCT-116, 24 h, dose 20 µmol/L
HCT-116 [26] = assay: Anticancer activity against human HCT-116 cells assessed as inhibition of cell proliferation by MTT assay; format: functional, cell-based
HCT-116 [27] = assay: Induction of apoptosis in human HCT-116 cells assessed as unclear cell rupture edges at 30 micromol/L incubated for 48 hrs by Giemsa staining based fluorescence microscopy; format: functional; conditions: dose 30.0 µmol/L
HCT-116 [28] = assay: […] activity in human HCT-116 cells assessed as upregulation of cleaved caspase-3 level at 30 micromol/L incubated for 48 hrs by Western blot analysis; format: functional, cell-based; conditions: dose 30.0 µmol/L

SMILES	IC50 (SK-HEP1) [µM]	Activity (HCT-116 [1])	IC50 (Huh-7) [µM]	IC50 (A549) [µM]	viability at 30 µM (HCT-116 [2]) [%]	Activity (HCT-116 [3]) [%]	Activity (HCT-116 [4])	Activity (HCT-116 [5])	Activity (HCT-116 [6])	inhibition at 20 µM (HCT-116 [8]) [%]	Activity (HCT-116 [9])	Activity (HCT-116 [10]) [%]	Activity (HCT-116 [11]) [%]	Activity (HCT-116 [12]) [%]	Activity (HCT-116 [13]) [%]	IC50 (LoVo) [µM]	inhibition (HCT-116 [15])	IC50 (RKO) [µM]	Activity (HCT-116 [17]) [%]	IC50 [18] [µM]	other results
Cc1ccc(COC(=O)CC[C@@H](C)[C@H]2CC[C@H]3[C@@H]4[C@H](O)C[C@@H]5C[C@H](O)CC[C@]5(C)[C@H]4C[C@H](O)[C@]23C)cc1	60.2	Active	51.6	40.5	25.3	72.61	Active	Active	Active	80	Active	51.59	0.81	95.87	1.3	18.7	Tde	27.6	90.66	> 500	inhibition at 20 µM (HCT-116 [7]): 80%; Activity (RAW264.7 [14]): Active; Activity (HCT-116 [16]): Active; IC50 (MGC-803): 21.9 µM; Activity (HCT-116 [19]): Active; inhibition at 40 µM (HCT-116 [20]): 90%; IC50 (RAW264.7 [21]): 20.6 µM; IC50 (HT-29): 22.7 µM; IC50 (SW480): 23.6 µM; inhibition (HCT-116 [22]): Dde; Activity (HCT-116 [23]): Active; Activity (HCT-116 [24]): Active; inhibition at 20 µM (HCT-116 [25]): < 40%; IC50 (HCT-116 [26]): 21.3 µM; Activity (HCT-116 [27]): Active
COc1cc(COC(=O)CC[C@@H](C)[C@H]2CC[C@H]3[C@@H]4[C@H](O)C[C@@H]5C[C@H](O)CC[C@]5(C)[C@H]4C[C@H](O)[C@]23C)cc(OC)c1	50.7	Active	126	34.6	19.5	76.88	Active	Active	Active	80	Active	70.35	1.65	93.87	2.01	23.1	Tde	31.7	89.77	> 500	inhibition at 20 µM (HCT-116 [7]): 80%; Activity (RAW264.7 [14]): Active; Activity (HCT-116 [16]): Active; IC50 (MGC-803): 26.4 µM; Activity (HCT-116 [19]): Active; inhibition at 40 µM (HCT-116 [20]): 90%; IC50 (RAW264.7 [21]): 20.6 µM; IC50 (HT-29): 27.9 µM; IC50 (SW480): 28 µM; inhibition (HCT-116 [22]): Dde; Activity (HCT-116 [23]): Active; Activity (HCT-116 [24]): Active; inhibition at 20 µM (HCT-116 [25]): < 40%; IC50 (HCT-116 [26]): 23.7 µM; Activity (HCT-116 [27]): Active
COC(=O)c1ccc(COC(=O)CC[C@@H](C)[C@H]2CC[C@H]3[C@@H]4[C@H](O)C[C@@H]5C[C@H](O)CC[C@]5(C)[C@H]4C[C@H](O)[C@]23C)cc1	41.6	Active	52.1	51.1	23.1	74.4	Active	Active	Active	80	Active	71.17	1.19	91.33	1.33	28.4	Tde	41.2	89.39	> 500	inhibition at 20 µM (HCT-116 [7]): 80%; Activity (HCT-116 [28]): Active; Activity (RAW264.7 [14]): Active; Activity (HCT-116 [16]): Active; IC50 (MGC-803): 28.5 µM; Activity (HCT-116 [19]): Active; IC50 (RAW264.7 [21]): 20.6 µM; IC50 (HT-29): 27.2 µM; IC50 (SW480): 31.3 µM; inhibition (HCT-116 [22]): Dde; Activity (HCT-116 [23]): Active; Activity (HCT-116 [24]): Active; IC50 (HCT-116 [26]): 25 µM; Activity (HCT-116 [27]): Active
COC(=O)c1ccc(COC(=O)CC[C@@H](C)[C@H]2CC[C@H]3[C@@H]4[C@H](O)C[C@@H]5C[C@H](O)CC[C@]5(C)[C@H]4CC[C@]23C)cc1	49.9	Active	74.8	121	34.9	62.13	Active	Active	Active	30	Active	79.08	0.89	85.75	2.12	28.3	Tde	44.4	63.98	> 500	Activity (HCT-116 [28]): Active; IC50 (MGC-803): 31.6 µM; Activity (HCT-116 [19]): Active; IC50 (HT-29): 29.2 µM; IC50 (SW480): 36.1 µM; inhibition (HCT-116 [22]): Dde; Activity (HCT-116 [23]): Active; Activity (HCT-116 [24]): Active; IC50 (HCT-116 [26]): 28.9 µM; Activity (HCT-116 [27]): Active
C[C@H](CCC(=O)OCc1ccc([N+](=O)[O-])cc1)[C@H]1CC[C@H]2[C@@H]3[C@H](O)C[C@@H]4C[C@H](O)CC[C@]4(C)[C@H]3C[C@H](O)[C@]12C	71.9	Active	63	45.7	13.8	84.27	Active	Active	Active	80	Active	58.32	0.96	97.06	0.93	24.4	Tde	29.5	93.18	> 500	inhibition at 20 µM (HCT-116 [7]): 80%; Activity (RAW264.7 [14]): Active; Activity (HCT-116 [16]): Active; IC50 (MGC-803): 21.8 µM; Activity (HCT-116 [19]): Active; inhibition at 40 µM (HCT-116 [20]): 90%; IC50 (RAW264.7 [21]): 20.6 µM; IC50 (HT-29): 34.8 µM; IC50 (SW480): 31.8 µM; inhibition (HCT-116 [22]): Dde; Activity (HCT-116 [23]): Active; Activity (HCT-116 [24]): Active; inhibition at 20 µM (HCT-116 [25]): < 40%; IC50 (HCT-116 [26]): 22 µM; Activity (HCT-116 [27]): Active
